These are literature values, as cited in patent US7446204B2, “Amino substituted aryloxybenzylpiperidine derivatives” (H. Lundbeck A/S, priority 2004, dated 2008).

Like-named read-outs stand apart in the source and are kept apart here.

In data set [1] the target is T1, MCH1 receptor (Rattus norvegicus, UniProt P97639).
T1 construct: host or cells: living rats (endogenous receptor)
Particulars: rat forced-swim; Borowsky et al., Nature Medicine 2002.

The target of data set [2] is T2, MCH1 receptor (Cavia porcellus, UniProt H0VKT7).
T2 construct: host or cells: living guinea pigs (endogenous receptor)
T2 sequence (H0VKT7 1-355): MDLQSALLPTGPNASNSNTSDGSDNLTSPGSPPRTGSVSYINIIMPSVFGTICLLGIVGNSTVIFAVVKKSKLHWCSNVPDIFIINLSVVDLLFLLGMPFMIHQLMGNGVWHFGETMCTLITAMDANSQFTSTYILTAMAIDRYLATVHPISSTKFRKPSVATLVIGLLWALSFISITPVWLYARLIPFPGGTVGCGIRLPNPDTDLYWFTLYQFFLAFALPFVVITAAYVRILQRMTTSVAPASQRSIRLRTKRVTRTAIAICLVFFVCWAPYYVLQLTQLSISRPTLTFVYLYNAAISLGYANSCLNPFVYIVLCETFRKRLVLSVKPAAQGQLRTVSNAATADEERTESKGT
Particulars: guinea pig maternal-separation vocalization; Borowsky et al., Nature Medicine 2002.

The target of data set [3] is T1, MCH1 receptor. The conditions noted are these: rat social interaction; Borowsky et al., Nature Medicine 2002.

T1 sequence (P97639 whole entry): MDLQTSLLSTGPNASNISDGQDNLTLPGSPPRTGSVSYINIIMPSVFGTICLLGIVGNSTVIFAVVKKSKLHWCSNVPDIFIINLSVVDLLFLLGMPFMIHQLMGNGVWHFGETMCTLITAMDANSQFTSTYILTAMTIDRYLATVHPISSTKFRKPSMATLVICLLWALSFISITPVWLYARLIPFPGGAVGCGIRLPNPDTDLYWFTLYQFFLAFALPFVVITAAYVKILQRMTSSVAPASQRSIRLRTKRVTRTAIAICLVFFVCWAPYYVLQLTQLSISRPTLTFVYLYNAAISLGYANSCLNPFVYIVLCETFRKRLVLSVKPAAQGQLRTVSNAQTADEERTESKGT

`COCC1=C(C(=O)OC)[C@H](c2ccc(F)c(F)c2)N(C(=O)NCCCN2CCC(c3cccc(NC(C)=O)c3)CC2)C(=O)N1` [SNAP-7941]: the “profile in behavioral model of depression and/or anxiety” value was “profile similar to clinically used anti-depressants and anxiolytics” on MCH1 receptor [1]; “profile similar to clinically used anti-depressants and anxiolytics” at MCH1 receptor [2]; “profile similar to clinically used anti-depressants and anxiolytics” on MCH1 receptor [3].
